Source: patent US20250328351A1, “CARBONIC ANHYDRASE INHIBITORS AND ANTIBIOTICS AGAINST MULTIDRUG RESISTANT BACTERIA” (Purdue Research Foundation, priority 2018, published 2025)
In brackets after ≈: the same amount, converted by molar mass. Like-named read-outs stand apart in the source and are kept apart here.

Assays:
[1] = tested on: Enterococcus faecalis S613 HM-334; assay: MIC, broth microdilution (CLSI); assay type: cell-based
Experimental: (§1) The minimum inhibitory concentrations (MICs) of the compounds and control drugs were determined using the broth microdilution method, according to guidelines outlined by the Clinical and Laboratory Standards Institute (CLSI). Enterococci strains were grown aerobically overnight on tryptone soya agar plates at 37° C., afterwards a bacterial solution equivalent to 0.5 McFarland standard was prepared and diluted in tryptone soy broth (TSB) to achieve a bacterial concentration of about 5×10^5 CFU/mL and seeded in 96-well well plates. Compounds and control drugs were added in the first row of the 96-well plates and serially diluted along the plates. Plates were then incubated aerobically at 37° C. for 18-20 hours. MICs reported in Table 1 are the minimum concentration of the compounds/control drugs that could inhibit completely the visual growth of the bacteria.
(§2) The minimum inhibitory concentrations (MICs) of CAIs were tested against clinical isolates of vancomycin sensitive and vancomycin resistant Enterococci strains as per the guidelines provided by the Clinical and Laboratory Standards Institute (CLSI). The selected strains of Enterococci were streaked on Tryptic Soy Agar (TSA) plates and let grow for 24 hours at 37° C. Afterwards, a bacterial solution equivalent to 0.5 McFarland standard was prepared and diluted in tryptone soy broth (TSB) or brain heart infusion broth (BHIB) to achieve a bacterial concentration of about 5×10^5 CFU/mL and seeded in 96-well well plates. Compounds and control drugs were added in the first row of the 96-well plates and serially diluted along the plates. Plates were then incubated aerobically at 37° C. for 18-20 hours. MICs reported in Table 5 are the minimum concentration of the compounds/control drugs that could inhibit completely the visual growth of the bacteria.
The minimum inhibitory concentrations (MICs) of CAIs were tested against vancomycin resistant Enterococcus faecalis—S613 HM 334 strain as per the guidelines provided by the Clinical and Laboratory Standards Institute (CLSI). The selected strain was streaked on Tryptic Soy Agar (TSA) plate and let grow for 24 hours at 37° C. […] Compounds and control drugs were added in the first row of the 96-well plates and serially diluted along the plates. Plates were then incubated aerobically at 37° C. for 18-20 hours. MICs reported in table (6) are the minimum concentration of the compounds/control drugs that could inhibit completely the visual growth of the bacteria.

[2] = tested on: Bacteroides dorei CL02T12C06 HM-719; assay: MIC against human normal gut microbiota; assay type: cell-based; settings: Phocaeicola dorei; Table 3; BHIS broth, anaerobic, 48 hours; read-out: MIC
Experimental: (§3) Three different bacterial strains were used in this experiment; Bifidobacterium (anaerobic Gram positive bacteria), Bacteroides (anaerobic Gram negative bacteria) and Lactobacillus (microaerophilic Gram positive bacteria). Bifidobacterium and Bacteroides were first grown for 48 hours at 37° C., anaerobically using brain heart infusion supplemented (BHIS) agar (Brain heart infusion agar supplemented with hemin, vitamin K and L-cysteine). Lactobacillus was cultivated on MRS agar and incubated in presence of 5% CO2 for 48 hours at 37° C. Each bacterium was suspended in phosphate buffered saline (PBS) to produce a suspension with optical density that matches 0.5 McFarland standard and diluted in brain heart infusion supplemented broth (for Bifidobacterium and Bacteroides) or in MRS broth (for Lactobacillus) to achieve bacterial concentration of approximately 5×10^5 CFU/ml. Bacteria were then seeded in 96-well plates containing serial dilutions of the compounds and incubated as mentioned previously for 48 hours.

[3] = tested on: Bacteroides fragilis CL07T00C01 HM-709; assay: MIC against human normal gut microbiota; assay type: cell-based; settings: Table 3, BHIS broth, anaerobic, 48 hours, read-out: MIC
Experimental: as §3

[4] = tested on: Bifidobacterium breve JCP7499 HM 1120; assay: MIC against human normal gut microbiota; assay type: cell-based; settings: JCP7499HM1120, Table 3, BHIS broth, anaerobic, 48 hours, read-out: MIC
Experimental: as §3

[5] = tested on: VERO cells; assay: In vitro cytotoxicity, MTS assay; assay type: cell-based, monkey; settings: concentration up to 128 μg/mL; two hours incubation
Experimental: Toxicity assessment: Compounds AS005H, AS005J, AS004B, AS005K, AS005A and 005D were assayed (at concentrations of 64 and 128 μg/mL) against a fibroblast-like monkey kidney cell line (VERO cell) to determine the potential toxic effect in vitro. Briefly, cells were cultured in Minimum Essential Medium (MEM) supplemented with 10% fetal bovine serum (FBS), 1 mM sodium pyruvate, and penicillin-streptomycin at 37° C. with CO2 (5%). Control cells received DMSO alone at a concentration equal to that in drug-treated cell samples. The cells were incubated with the compounds (in triplicate) in a 96-well plate at 37° C. with CO2 (5%) for two hours. The assay reagent MTS 3-(4,5-dimethylthiazol-2-yl)-5-(3-carboxymethoxyphenyl)-2-(4-sulfophenyl)-2H-tetrazolium) (Promega, Madison, WI, USA) was subsequently added and the plate was incubated for four hours. Absorbance readings (at OD490) were taken using a kinetic microplate reader (Molecular Devices, Sunnyvale, CA, USA). The quantity of viable cells after treatment with each compound was expressed as a percentage of the viability of DMSO-treated control cells (average of triplicate wells±standard deviation). The toxicity data was analyzed via a two-way ANOVA, with post hoc Dunnet's multiple comparisons test (P<0.05), utilizing GraphPad Prism 6.0 (GraphPad Software, La Jolla, CA).
Percent viable mammalian cells (measured as average absorbance ratio (test agent relative to DMSO) for cytotoxicity analysis of compounds AS005H, AS005J, AS004B, AS005K, AS005A and 005D (tested in triplicates) at 64 and 128 μg/mL against VERO cells using the MTS 3-(4,5-dimethylthiazol-2-yl)-5-(3-carboxymethoxyphenyl)-2-(4-sulfophenyl)-2H-tetrazolium) assay. Dimethyl sulfoxide (DMSO) was used as a negative control to determine a baseline measurement for the cytotoxic impact of each compound. The absorbance values represent an average of a minimum of three samples analyzed for each compound. Error bars represent standard deviation values for the absorbance values.

[6] = tested on: Enterococcus faecium E417 - HM-965; assay: MIC, broth microdilution (CLSI); assay type: cell-based
Experimental: as §1, §2

[7] = tested on: Enterococcus faecium Patient #2-1 - NR-31909; assay: MIC, broth microdilution (CLSI); assay type: cell-based; settings: Table 5
Experimental: as §1, §2

[8] = tested on: Enterococcus fecalis Strain SF 24397 NR31970; assay: MIC, broth microdilution (CLSI); assay type: cell-based; settings: Table 5
Experimental: as §1, §2

[9] = Enterococcus faecalis, S613HM334, Table 5, BHIB, read-out: MIC
[10] = Enterococcus faecalis, S613HM334, Table 5, TSB, read-out: MIC
[11] = Enterococcus faecalis, S613HM334, Table 6, TSB in presence of 4% human serum albumin, read-out: MIC
[12] = Enterococcus faecalis, S613HM334, Table 7, TSB, read-out: MIC
[13] = Enterococcus faecalis, S613HM334, Table 1, TSB, read-out: MIC

CCOc1ccc2nc(S(N)(=O)=O)sc2c1 [Ethoxzolamide]
MIC [1, 9]: > 128 µg/mL
MIC [1, 10]: 1 µg/mL (≈ 3.87 µM)
MIC [1, 11]: > 256 µg/mL

CC(C)CC(=O)Nc1nnc(S(N)(=O)=O)s1 [CAI0026, 3-Methyl-N-(5-sulfamoyl-1,3,4-thiadiazol-2-yl)butanamide]
MIC [1, 12]: 0.25 µg/mL (≈ 0.946 µM)

CC(C)(C)CC(=O)Nc1nnc(S(N)(=O)=O)s1 [CAI0028, 3,3-Dimethyl-N-(5-sulfamoyl-1,3,4-thiadiazol-2-yl)butanamide]
MIC [1, 12]: 0.03 µg/mL (≈ 0.108 µM)

CCCC(=O)Nc1nnc(S(N)(=O)=O)s1 [CAI0013, N-(5-Sulfamoyl-1,3,4-thiadiazol-2-yl)butyramide]
MIC [2]: > 64 µg/mL
MIC [3]: > 64 µg/mL
MIC [4]: > 64 µg/mL
toxicity to VERO cells (percent viable cells, MTS) [5]: non-toxic

NS(=O)(=O)c1nnc(NC(=O)C2CC2)s1 [CAI0020, N-(5-Sulfamoyl-1,3,4-thiadiazol-2-yl)cyclopropanecarboxamide]
MIC [1, 12]: 0.007 µg/mL (≈ 0.0282 µM)

NS(=O)(=O)c1nnc(NC(=O)C2CCCC2)s1 [CAI0023, N-(5-Sulfamoyl-1,3,4-thiadiazol-2-yl)cyclopentanecarboxamide]
MIC [1, 12]: 0.5 µg/mL (≈ 1.81 µM)

NS(=O)(=O)c1cc(Cl)c(Cl)c(S(N)(=O)=O)c1 [Dichlophenamide, reference compound]
MIC ([6]; Table 5, BHIB): 16 µg/mL (≈ 52.4 µM)
MIC ([6]; Table 5, TSB): 1 µg/mL (≈ 3.28 µM)
MIC ([7]; TSB): 2 µg/mL (≈ 6.55 µM)
MIC ([8]; TSB): 16 µg/mL (≈ 52.4 µM)
MIC ([1]; Table 5, TSB): 16 µg/mL (≈ 52.4 µM)

NS(=O)(=O)c1nnc(NC(=O)c2ccccc2)s1 [CAI0012, N-(5-Sulfamoyl-1,3,4-thiadiazol-2-yl)benzamide]
MIC [1, 13]: 4 µg/mL (≈ 14.1 µM)
MIC [1, 12]: 4 µg/mL (≈ 14.1 µM)
MIC [2]: > 64 µg/mL
MIC [3]: > 64 µg/mL
MIC [4]: > 64 µg/mL

NS(=O)(=O)c1nnc(NC(=O)CC2CCCC2)s1 [CAI0021, 2-Cyclopentyl-N-(5-sulfamoyl-1,3,4-thiadiazol-2-yl)acetamide]
MIC [1, 12]: 0.03 µg/mL (≈ 0.103 µM)

CC(=O)Nc1nnc(S(C)(=O)=O)s1 [CAI0025, N-(5-(Methylsulfonyl)-1,3,4-thiadiazol-2-yl)acetamide]
MIC [1, 12]: > 128 µg/mL

NS(=O)(=O)c1nnc(NC(=O)C2CCCCC2)s1 [CAI0022, N-(5-Sulfamoyl-1,3,4-thiadiazol-2-yl)cyclohexanecarboxamide]
MIC [1, 12]: 0.25 µg/mL (≈ 0.861 µM)

CC(=O)NC[C@H]1CN(c2ccc(N3CCOCC3)c(F)c2)C(=O)O1 [Linezolid]
MIC [1, 13]: 1 µg/mL (≈ 2.96 µM)
MIC [1, 9]: 1 µg/mL (≈ 2.96 µM)
MIC [1, 10]: 1 µg/mL (≈ 2.96 µM)
MIC [1, 12]: 1 µg/mL (≈ 2.96 µM)
MIC [2]: 1 µg/mL (≈ 2.96 µM)
MIC [3]: 2 µg/mL (≈ 5.93 µM)
MIC [4]: ≤ 0.5 µg/mL

CC(=O)/N=c1/sc(S(N)(=O)=O)nn1C [Methazolamide]
MIC [1, 9]: > 128 µg/mL
MIC [1, 10]: 1 µg/mL (≈ 4.23 µM)
MIC [1, 11]: > 256 µg/mL

CCN[C@H]1CN(CCCOC)S(=O)(=O)c2sc(S(N)(=O)=O)cc21 [Brinzolamide]
MIC [1, 9]: > 128 µg/mL
MIC [1, 10]: 2 µg/mL (≈ 5.21 µM)
MIC [1, 11]: > 256 µg/mL

NS(=O)(=O)c1nnc(NC(=O)C2CCC2)s1 [CAI0018, N-(5-Sulfamoyl-1,3,4-thiadiazol-2-yl)cyclobutanecarboxamide]
MIC [1, 12]: 1 µg/mL (≈ 3.81 µM)

NS(=O)(=O)c1nnc(NC(=O)CC2CCCCC2)s1 [CAI0029, 2-Cyclohexyl-N-(5-sulfamoyl-1,3,4-thiadiazol-2-yl)acetamide]
MIC [1, 12]: 0.015 µg/mL (≈ 0.0493 µM)

CCC(=O)Nc1nnc(S(N)(=O)=O)s1 [CAI0009, N-(5-Sulfamoyl-1,3,4-thiadiazol-2-yl)propionamide]
MIC [1, 13]: 2 µg/mL (≈ 8.46 µM)
MIC [1, 12]: 2 µg/mL (≈ 8.46 µM)
MIC [2]: > 64 µg/mL
MIC [3]: > 64 µg/mL
MIC [4]: > 64 µg/mL

CCCCCCC(=O)Nc1nnc(S(N)(=O)=O)s1 [CAI0027, N-(5-Sulfamoyl-1,3,4-thiadiazol-2-yl)heptanamide]
MIC [1, 12]: 0.007 µg/mL (≈ 0.0239 µM)

CCCCCCCCCC(=O)N[C@@H](Cc1c[nH]c2ccccc12)C(=O)N[C@H](CC(N)=O)C(=O)N[C@@H](CC(=O)O)C(=O)N[C@@H]1C(=O)NCC(=O)N[C@@H](CCCN)C(=O)N[C@@H](CC(=O)O)C(=O)N[C@H](C)C(=O)N[C@@H](CC(=O)O)C(=O)NCC(=O)N[C@H](CO)C(=O)N[C@@H]([C@H](C)CC(=O)O)C(=O)N[C@@H](CC(=O)c2ccccc2N)C(=O)O[C@@H]1C [Daptomycin]
MIC ([6]; Enterococcus faecium, E417HM965, Table 5, BHIB, read-out: MIC): 16 µg/mL (≈ 9.87 µM)
MIC ([6]; Enterococcus faecium, E417HM965, Table 5, TSB, read-out: MIC): 4 µg/mL (≈ 2.47 µM)
MIC ([7]; Enterococcus faecium, BHIB, read-out: MIC): 16 µg/mL (≈ 9.87 µM)
MIC ([7]; Enterococcus faecium, TSB, read-out: MIC): 8 µg/mL (≈ 4.94 µM)
MIC ([8]; Enterococcus, BHIB, read-out: MIC): 2 µg/mL (≈ 1.23 µM)
MIC ([8]; Enterococcus, TSB, read-out: MIC): 1 µg/mL (≈ 0.617 µM)
MIC [1, 9]: 2 µg/mL (≈ 1.23 µM)
MIC [1, 10]: 1 µg/mL (≈ 0.617 µM)
MIC [1, 11]: 16 µg/mL
